In BindingDB's records for doi:10.1039/c5md00579e (The Scripps Research Institute, 2016):

Experiment: Inhibition of MCT1 in human Raji cells assessed as inhibition of cell proliferation after 96 hrs by MTT assay

SMILES | EC50 [nM]
CC(C)Cc1nn(C)c(=O)c2c(SCCCO)n(Cc3ccnc(Cl)c3)cc12 | 1000
CC(C)Cc1nn(C)c(=O)c2c(SCCCO)n(Cc3cnc(Cl)c4ccccc34)cc12 | 55
CC(C)Cc1nn(C)c(=O)c2c(SCCCO)n(Cc3cc(Cl)nc4ccccc34)cc12 | 60
CC(C)Cc1nn(C)c(=O)c2c(SCCCO)n(Cc3ccnc(NCCCCCN)c3)cc12 | 520
CC(C)Cc1nn(C)c(=O)c2c(SCCCO)n(Cc3cc(NCCCCCN)nc4ccccc34)cc12 | 24
CC(C)Cc1nn(C)c(=O)c2c(SCCCO)n(Cc3ccc(NCCCCCN)nc3)cc12 | 420
CC(C)Cc1nn(C)c(=O)c2c(SCCCO)n(Cc3cnc(NCCCCCN)c4ccccc34)cc12 | 0.8
CC(C)Cc1nn(C)c(=O)c2c(SCCCO)n(Cc3ccnc(NCCCCCNC(=O)[C@@H](N)CCC(N)=O)c3)cc12 | 500
CC(C)Cc1nn(C)c(=O)c2c(SCCCO)n(Cc3cc(NCCCCCNC(=O)[C@@H](N)CCC(N)=O)nc4ccccc34)cc12 | 0.8
CC(C)Cc1nn(C)c(=O)c2c(SCCCO)n(Cc3ccc(NCCCCCNC(=O)[C@@H](N)CCC(N)=O)nc3)cc12 | 100
CC(C)Cc1nn(C)c(=O)c2c(SCCCO)n(Cc3cnc(NCCCCCNC(=O)[C@@H](N)CCC(N)=O)c4ccccc34)cc12 | 0.16
CC(C)Cc1nn(C)c(=O)c2c(SCCCO)n(Cc3ccc(C#CCCCOc4ccc(C[C@H](N)C(=O)O)cc4)c4ccccc34)cc12 | 0.8
CC(C)Cc1nn(C)c(=O)c2c(SCCCO)n(Cc3ccc(C#CCCCNC(=O)[C@@H](N)CCC(N)=O)c4ccccc34)cc12 | 4
CC(C)Cc1nn(C)c(=O)c2c(SCCCO)n(Cc3ccc(Br)c4ccccc34)cc12 | 11
CC(C)Cc1nn(C)c(=O)c2c(SCCCO)n(Cc3ccc(Cl)nc3)cc12 | 690
